US20090088380A1, “GHRH ANALOGS AND THERAPEUTIC USES THEREOF” (priority 2007, published 2009)
Where “and” joins values, the source holds several entries; their conditions need not be identical. Equal values may be shown once. Non-standard residues stand in square brackets, D forms with d. Residues, ends and D or L forms follow the SMILES beside them.

Key:
protein turnover = assay: Phase II, malnourished CKD subjects, 1 mg sc twice daily 28 days: 13C-leucine kinetics (protein turnover); type: in vivo, human; settings: for Leucine oxidation: adjusted mean difference (analog-placebo): Day 28; for Leucine flux: mean (SD): normalised with body weight
Method: This was a randomized, double-blind, placebo-controlled, parallel-group, multi-centre study of the GHRH(1-29)NH2 synthetic analog in malnourished subjects with CKD. Twenty-six subjects were required to complete the study.
All study subjects were randomised in equal numbers to receive active GHRH(1-29)NH2 synthetic analog or an equivalent volume of placebo, by sc injection, twice daily for 28 days.
Vials of investigational product contained 1.4 mg of the GHRH(1-29)NH2 synthetic analog. This was reconstituted with 0.7 mL of water for injection and 0.5 mL of the resultant solution (1.0 mg of active substance) was administered, i.e. approximately 15 μg/kg. The diluent, water for injections, was obtained from commercial stock and labelled accordingly.
Leucine kinetics was measured on Day 0 and Day 29 by a primed-constant infusion technique during substrate and isotopic steady state. The priming dose consisted of 4.0 μmol/kg of L[1−^13C] leucine and 0.11 mg/kg of NaH^13CO3 and a sustaining infusion rate of L[1−^13C] leucine of 4.0 μmol/kg/h for 4 hours. The isotopes were purchased directly from Cambridge Isotope Laboratories.
A 1 mL sample of venous blood was taken before administration of the dose of isotope and at 180, 195, 210, 225 and 240 minutes after the start of infusion.
Breath samples were provided by blowing through a straw into Exetainer® tubes (evacuated 139 B blue tops). Breath samples were collected before the dose of isotope and at 180, 195, 210, 225 and 240 minutes after the start of infusion. Duplicate samples were collected. One sample was sent for analysis; the other was retained in case of loss or breakage. All retained samples were destroyed once the database was locked.

Leptin and adiponectin = assay: Phase II CKD: fat regulation (leptin, adiponectin); type: in vivo, human
Method: Leptin (ng/mL) and adiponectin (μg/mL) were measured at every visit from baseline to Day 28 as markers for regulating metabolism. Samples were analysed at the Department of Nephrology, Endocrinology and Metabolic Diseases, Silesian University School of Medicine, Katowice.

[1] = test system: malnourished subjects with CKD; assay: Phase II CKD: Subjective Global Assessment (SGA); type: in vivo, human; settings: for SGA mild to moderately malnourished: (%) / SGA mild to moderately malnourished: n / SGA severely malnourished: (%) / SGA severely malnourished: n / SGA well nourished: (%) / SGA well nourished: n: ITT
Excerpt: An SGA was an overall evaluation of a subject by an experienced clinician that correlated with the subjective and objective aspects of a medical history and physical examination. An SGA was completed at both the screening and baseline visits, on Day 28 and at the follow-up visit. Review of the medical history included an assessment of weight and weight change, dietary intake, gastrointestinal symptoms, disease state, and the subject's functional status. The SGA also included a physical examination for negative changes in body composition such as loss of subcutaneous fat or muscle wasting, and signs of oedema or ascites (nutrition-related). After evaluation, the subject was classified as well nourished (A), mild to moderately malnourished (B), or severely malnourished (C).

in vivo = settings: Sprague-Dawley, rat
Method: No mortality, adverse clinical sign, effects on body weight, food consumption, opthalmology, haematology, coagulation, clinical chemistry, urinalysis, organ weights, macroscopic or microscopic observations were noted following the dosing or recovery periods. The no adverse effect level for this study was determined to be 3 mg/kg body weight.

[2] = In vitro proteolysis assay in human serum; type: in vitro ADME
Method: Proteolysis was stopped by adding 800 μl of ice-cold stop buffer (potassium-phosphate buffer, acidified to pH 0.8 with trifluoroacetic acid (TFA) and boiling 5 min (rat serum only). After centrifugation (12000 g, 5 min, 4° C.) (rat serum only), serum-peptide mixtures were passed through a conditioned Sep-Pak C-18 cartridge to extract native GHRH or a GHRH analog residual concentrations from serum proteins. The native GHRH or the analog was eluted in 2 ml of 50% acetonitrile-0.01% TFA/50% 0.01% aqueous TFA. 200 μl of extracted peptide, representing 1 μg of GHRH or analog at time 0, was quantified by analytical HPLC, using one μ-Bondapak C18 column (10 μm particle size, 0.39×15 cm) (rat serum) or two C18 columns in series (human serum and plasma) and a binary solvent system composed of NaClO4 0.01 M, pH 2.5 and acetonitrile. A linear gradient from 30 to 60% acetonitrile over 45 min (rat serum) or 30 to 50% (human serum and plasma) was used. Elution of intact peptide was monitored at 214 nm and residual concentration determined by assessment of peak surface areas.

[3] = ITT, Baseline, listed as GHRH(1-29)NH2 synthetic analog
[4] = ITT, listed as GHRH(1-29)NH2 synthetic analog
[5] = Baseline, listed as GHRH(1-29)NH2 synthetic analog

Q: What does the source list for `CC[C@H](C)[C@H](NC(=O)[C@H](C)NC(=O)[C@H](CC(=O)O)NC(=O)[C@@H](C)NC(=O)[C@@H](N)Cc1ccc(O)cc1)C(=O)N[C@@H](Cc1ccccc1)C(=O)N[C@H](C(=O)N[C@@H](CC(N)=O)C(=O)N[C@@H](CO)C(=O)N[C@H](Cc1ccc(O)cc1)C(=O)N[C@@H](CCCNC(=N)N)C(=O)N[C@@H](CCCCN)C(=O)N[C@H](C(=O)N[C@@H](CC(C)C)C(=O)N[C@H](C)C(=O)N[C@@H](CCC(N)=O)C(=O)N[C@@H](CC(C)C)C(=O)N[C@@H](CO)C(=O)N[C@@H](C)C(=O)N[C@@H](CCCNC(=N)N)C(=O)N[C@@H](CCCCN)C(=O)N[C@@H](CCCCN)C(=O)N[C@@H](CC(C)C)C(=O)N[C@@H](CCC(N)=O)C(=O)N[C@@H](CC(=O)O)C(=O)N[C@H](C(=O)N[C@@H](CCSC)C(=O)N[C@@H](CO)C(=O)N[C@@H](CCCNC(=N)N)C(N)=O)[C@@H](C)CC)C(C)C)[C@@H](C)O` [GHRH analog #5, [D-Ala^2, D-Tyr^10, D-Ala^15, Lys^22] hGHRH(1-29)-NH2] (H-Y[dA]DAIFTNS[dY]RKVL[dA]QLSARKKLQDIMSR-NH2)?
A: Leucine flux: mean (SD) change from baseline to Day 28 (protein turnover; ITT): 1.15 (30.09) μmol/kg · hr; Leucine flux: median change from baseline to Day 28 (protein turnover; ITT): -0.4 µmol/kg/h; Leucine oxidation: mean (SD) change from baseline to Day 28 (protein turnover; ITT): 2.38 (5.66) μmol/kg · hr; Leucine oxidation: median change from baseline to Day 28 (protein turnover; ITT): 2.3 µmol/kg/h; Oxidation of flux: mean (SD) change from baseline to Day 28 (protein turnover; ITT): 2.64 (6.26) %; Oxidation of flux: median change from baseline to Day 28 (protein turnover; ITT): 3.8%; Protein breakdown: mean (SD) change from baseline to Day 28 (protein turnover; ITT): 1.16 (30.11) μmol/kg · hr; Protein breakdown: median change from baseline to Day 28 (protein turnover; ITT): -0.4 µmol/kg/h; Protein synthesis of flux: mean (SD) change from baseline to Day 28 (protein turnover; ITT): −2.64 (6.26) %; Protein synthesis of flux: median change from baseline to Day 28 (protein turnover; ITT): −3.8%; Protein synthesis: mean (SD) change from baseline to Day 28 (protein turnover; ITT): −1.22 (30.75) μmol/kg · hr; Protein synthesis: median change from baseline to Day 28 (protein turnover; ITT): -4.6 µmol/kg/h; Leucine flux: median (protein turnover; ITT, Baseline): 98.3 µmol/kg/h; Leucine oxidation: mean (SD) (protein turnover; ITT, Baseline): 7.74 μmol/kg · hr and 7.74 (4.51) μmol/kg · hr; Leucine oxidation: median (protein turnover; ITT, Baseline): 5.8 µmol/kg/h; Oxidation of flux: mean (SD) (protein turnover; ITT, Baseline): 7.61 (4.19) %; Oxidation of flux: median (protein turnover; ITT, Baseline): 6.9%; Protein breakdown: mean (SD) (protein turnover; ITT, Baseline): 97.45 (21.53) μmol/kg · hr; Protein breakdown: median (protein turnover; ITT, Baseline): 94.2 µmol/kg/h; Protein synthesis of flux: mean (SD) (protein turnover; ITT, Baseline): 92.39 (4.19) %; Protein synthesis of flux: median (protein turnover; ITT, Baseline): 93.1%; Protein synthesis: mean (SD) (protein turnover; ITT, Baseline): 93.71 (20.38) μmol/kg · hr; Protein synthesis: median (protein turnover; ITT, Baseline): 88.9 µmol/kg/h; Leucine oxidation: mean (SD) (protein turnover; [3]): 7.74 µmol/kg/h; Protein breakdown: mean (SD) (protein turnover; [3]): 97.45 µmol/kg/h; Protein synthesis: mean (SD) (protein turnover; [3]): 93.71 µmol/kg/h; Leucine oxidation: adjusted mean difference (analog-placebo) (protein turnover; ITT): 1.1 μmol/kg · hr; Leucine flux: mean (SD) change from baseline to Day 28 (protein turnover; [4]): 1.15 µmol/kg/h; Leucine oxidation: mean (SD) change from baseline to Day 28 (protein turnover; [4]): 2.38 µmol/kg/h; Protein breakdown: mean (SD) change from baseline to Day 28 (protein turnover; [4]): 1.16 µmol/kg/h; Protein synthesis of flux: median change from baseline to Day 28 (protein turnover; [4]): -3.8%; Protein synthesis: mean (SD) change from baseline to Day 28 (protein turnover; [4]): -1.22 µmol/kg/h; Leucine flux: mean (SD) (protein turnover; ITT, Baseline): 101.46 (21.54) μmol/kg · hr; Leucine flux: mean (SD) (protein turnover; [3]): 101.46 µmol/kg/h; Leucine flux: adjusted mean difference (protein turnover; ITT, vs placebo): 7.5 µmol/kg/h; Protein breakdown: adjusted mean difference (protein turnover; ITT, vs placebo): 7.5 µmol/kg/h; Protein synthesis: adjusted mean difference (protein turnover; ITT, vs placebo): 6.9 µmol/kg/h; Oxidation of flux: adjusted mean difference (protein turnover; ITT, vs placebo, ANCOVA assuming log-normal distribution): 1.48%; Leucine oxidation: mean (SD) change from baseline to Day 28 (protein turnover; PP (Leucine Kinetic)): 1.90 (6.24) μmol/kg · hr; Leucine oxidation: median change from baseline to Day 28 (protein turnover; PP (Leucine Kinetic)): 2.3 µmol/kg/h; Leucine oxidation: mean (SD) (protein turnover; PP (Leucine Kinetic), Baseline): 7.81 (5.42) μmol/kg · hr; Leucine oxidation: median (protein turnover; PP (Leucine Kinetic), Baseline): 5.6 µmol/kg/h; Leucine oxidation: adjusted mean difference (analog-placebo) (protein turnover; PP (Leucine Kinetic)): 3.3 μmol/kg · hr; Adiponectin: median (95% CI) (Leptin and adiponectin; ITT, Baseline): 20604 ng/mL; Leptin: mean (SD) (Leptin and adiponectin; ITT, Baseline): 23.80 (34.29) ng/mL; Adiponectin: median (95% CI) (Leptin and adiponectin; ITT, Day 7): 21293 (14535; 27438) ng/mL; Adiponectin: median (95% CI) (Leptin and adiponectin; ITT, Day 14): 21548 (15810; 27030) ng/mL; Adiponectin: median (95% CI) (Leptin and adiponectin; ITT, Day 21): 21905 (15810; 31365) ng/mL; Adiponectin: median (95% CI) (Leptin and adiponectin; ITT, Day 28): 20553 (16320; 27030) ng/mL; Leptin: mean (SD) (Leptin and adiponectin; ITT, Day 28): 16.81 (21.81) ng/mL; Leptin: ratio of means (Leptin and adiponectin; ITT, Day 28, vs placebo): 0.866; Leptin reduction from baseline, range in all but two patients (Leptin and adiponectin; day 28): 10-70%; Mean leptin as % of the mean in placebo group (Leptin and adiponectin; in vivo): 70%; SGA mild to moderately malnourished: (%) ([1]; Baseline): (69.2%); SGA mild to moderately malnourished: n ([1]; Baseline): 9; SGA severely malnourished: (%) ([1]; Baseline): (7.7%); SGA severely malnourished: n ([1]; Baseline): 1; SGA well nourished: (%) ([1]; Baseline): (23.1%); SGA well nourished: n ([1]; Baseline): 3; SGA severely malnourished: (%) [1, 5]: 7.7%; SGA well nourished: (%) [1, 5]: 23.1%; SGA mild to moderately malnourished: (%) ([1]; Day 28): (16.7%); SGA mild to moderately malnourished: n ([1]; Day 28): 2; SGA severely malnourished: (%) ([1]; Day 28): (8.3%); SGA severely malnourished: n ([1]; Day 28): 1; SGA well nourished: (%) ([1]; Day 28): (75.0%); SGA well nourished: n ([1]; Day 28): 9; SGA well nourished: (%) ([1]; Day 28, listed as GHRH(1-29)NH2 synthetic analog): 75.0%; Mild to moderate malnourished patients (of 9) who became well nourished ([1]; after 28 days of therapy): 6; NOAEL at 672 h (in vivo): 3 mg/kg; R2 (60 min) ([2]; 60-min incubation in human serum): 1.55 ± 0.04; R2 (180 min) ([2]; 180-min incubation in human serum): 2.93 ± 0.87; Mean residual amount (%) ([2]; human serum, IT 0 min): 100%
